Consider nine compounds from patent US20230104936A1, “TRPML MODULATORS” (Casma Therapeutics, Inc., priority 2019, published 2023).

For orientation: AC50 means the concentration at which the activity in the assay is half-maximal.

Bounds are passed on as bounds.

The subject of one assay is TFEB. The assay can be described thus: TFEB nuclear translocation assay, HeLa wt cells. It counts as cell-based. As to conditions: 2 hrs compound treatment, Table 1 does not say HeLa wt or TRPML1 KO. Put shortly:
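AC50 derived from the ratio of nuclear to perinuclear ring (−5 μm) anti-TFEB immunofluorescence, imaged at ×20 over four fields per well. HeLa wt or TRPML1 KO cells were exposed to compounds for 2 hrs at 37° C, then PFA-fixed and counterstained with Hoechst.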
In the case of `CN(C)S(=N)(=O)c1ccc(S(=O)(=O)Nc2cccc(F)c2N2CCC(CN3CC4CCC(C3)O4)CC2)cc1` (stereo not drawn) [Compound A-852, N-(2-(4-((8-oxa-3-azabicyclo[3.2.1]octan-3-yl)methyl)piperidin-1-yl)-3-fluorophenyl)-4-(N,N-dimethylsulfamidimidoyl)benzenesulfonamide], the AC50 was no more than 2000 nM.

Staying with this assay, now noted: Homo sapiens, HeLa, 2 h, 2 hrs compound treatment, Table 1 does not say HeLa wt or TRPML1 KO.
The compound `CC(C)(C)S(=O)(=O)c1ccc(S(=O)(=O)Nc2ccccc2N2CCC(c3c(F)cccc3F)CC2)cc1` [Compound A-213, N-{2-[4-(2,6-difluorophenyl)piperidin-1-yl]phenyl}-4-(2-methylpropane-2-sulfonyl)benzene-1-sulfonamide] gave an AC50 of no more than 2000 nM. Compound `O=S(=O)(Nc1cccc(Cl)c1N1CCC(c2ccc(Cl)cc2F)CC1)c1ccc2c(c1)CCC2` [Compound A-341, N-{3-chloro-2-[4-(4-chloro-2-fluorophenyl)piperidin-1-yl]phenyl}-2,3-dihydro-1H-indene-5-sulfonamide] yielded an AC50 of no more than 2000 nM. The compound `CN(C)S(=O)(=O)c1ccc(S(=O)(=O)Nc2ccccc2N2CCC(c3cccc(F)c3C(=O)O)CC2)cc1` [Compound A-358, 2-(1-{2-[4-(dimethylsulfamoyl)benzenesulfonamido]phenyl}piperidin-4-yl)-6-fluorobenzoic acid] returned an AC50 of no less than 10000 nM. For the compound `C[C@@H]1CN(CC2CCN(c3c(F)cccc3[C@@H](C)S(=O)(=O)c3ccc(S(=N)(=O)N(C)C)cc3)CC2)C[C@H](C)O1` (single isomer, unassigned) [Compound A-902], the AC50 is no less than 10000 nM. Same read-out and setting: then `COCC1(C)CCN(c2ccccc2NS(=O)(=O)Cc2ccccc2OC)CC1` [Compound A-595, N-{2-[4-(methoxymethyl)-4-methylpiperidin-1-yl]phenyl}-1-(2-methoxyphenyl)methanesulfonamide], with 2010 to 8000 nM; and `C[C@H]1COC[C@H](C)N1CC1CCN(c2c(F)cccc2NS(=O)(=O)c2ccc(S(=N)(=O)N(C)C)cc2)CC1` (single isomer, unassigned) [Compound A-833], with no more than 2000 nM; and `CN(C)S(=O)(=O)c1ccc(S(=O)(=O)Nc2cc(F)ccc2N2CCC3(CC2)COC(C)(C)C3)cc1` [Compound A-605, N4-(2-{3,3-dimethyl-2-oxa-8-azaspiro[4.5]decan-8-yl}-5-fluorophenyl)-N1,N1-dimethylbenzene-1,4-disulfonamide], with no more than 2000 nM. The same measure, in the same setting: the result for `CC(c1cccc(F)c1N1CCCCC1)S(=O)(=O)c1ccc(S(=O)(=O)C(F)F)cc1` (stereo not drawn) [Compound A-973, 1-{2-[1-(4-difluoromethanesulfonylbenzenesulfonyl)ethyl]-6-fluorophenyl}piperidine] reads no more than 2000 nM.
